What was measured:
[1] = tested on: primary human bronchial epithelial cells; assay: Retinoic acid-induced mucinous differentiation, RT-PCR of hHIN-1, MUC2 and Tgase I mRNA; format: cell-based; conditions: 1 mM all-trans retinoic acid, 1 to 9 days
Protocol: Primary cultures of human bronchial epithelial cells were purchased from Clonetics (Walkersville, Md.) and were cultured in the presence or absence of 1 mM all-trans retinoic acid essentially as previously described [Koo et al. (1999) Am. J. Respir. Cell Mol. Biol. 20:43-52].
To test this hypothesis, the expression of hHIN-1 mRNA by RT-PCR during retinoic acid-induced mucinous differentiation of primary human bronchial epithelial cells was analyzed (FIG. 13). Primary human bronchial epithelial cells underwent squamous epithelial differentiation and expressed squamous cell markers such as transglutaminase I (Tgase I) in the absence of all-trans retinoic acid (FIG. 13). […] J. Respir. Cell Mol. Biol. 20:43-52]. […] Such expression kinetics are consistent with a role for HIN-1 as an inducer of this process.

[2] = tested on: breast cancer cell lines with no detectable expression of hHIN-1; assay: Effect of DNA methyltransferase inhibitor on hHIN-1 mRNA levels (RT-PCR); format: cell-based, human; conditions: six breast cancer cell lines, 25 μM 5aza-C for three to ten days
Excerpt: Cell lines and tissue. BT-20, BT-474, BT-549, Hs578T, MCF-7, MDA-MB-231, MDA-MB-468, MDA-MB-435S, SK-BR-3, T47D, UACC-812, UACC-893, and ZR-75-1 breast cancer cell lines were obtained from the American Type Culture Collection (ATCC; Manassas, Va.). SUM-44, SUM-52, SUM-102, SUM149, SUM-159, SUM-185, SUM-190, SUM-225, SUM-229, and SUM-1315 cell lines were a generous gift of Dr. Steve Ethier (University of Michigan Medical Center). The HCC1937 BRCA1 minus cell line was obtained from Dr. Gail Tomlinson (University of Texas Southwestern Medical Center). The 21MT1, 21MT2, 21NT, and 21PT cell lines were obtained from Dr. Arthur Pardee (Dana-Farber Cancer Institute). Cells were grown in media recommended by the ATCC or by the establishing investigators. However, 48 hours prior to RNA extraction, all cell lines were switched to DMEM/F12 medium supplemented with 5% FBS in order to minimize gene expression differences due to culture conditions. […]
(§1) To test for the consequence of promoter methylation on hHIN-1 expression, the effect of a DNA methyltransferase inhibitor (5-aza-2′-deoxycytidine; “5aza-C”) on hHIN-1 mRNA levels was analyzed. […] The expression of hHIN-1 mRNA was determined by RT-PCR analysis, while the extent of promoter methylation was evaluated by sequence analysis of bisulfite treated genomic DNA.

[3] = tested on: hHIN-1 promoter region; assay: Extent of hHIN-1 promoter methylation by sequence analysis of bisulfite treated genomic DNA; format: cell-based, human; conditions: ZR-75-1 cells treated with 25 μM 5aza-C vs not treated, bisulfite sequencing
Excerpt: hHIN-1 methylation, loss of heterozygocity and mutation analysis. Searching the draft of the human genome sequence with the hHIN-1 cDNA sequence identified a genomic clone (CTB-36B8) containing the entire hHIN-1 gene, the proximal promoter region of which contained an apparent CpG island. To determine the location of methylated cytosines, genomic DNA was extracted from the cells, bisulfite treated and purified as previously described [Herman et al. (1998) Proc. Natl. Acad. Sci. USA 95:6870-6875]. PCR amplification was performed using the following primers designed to amplify the coding strand (nucleotides −345 to +72) of bisulfite treated DNA: forward primer-5′-[…]-3′ (SEQ ID NO:9) and reverse primer-5′-[…]-3′ (SEQ ID NO:10). […] PCR amplifications were performed as described above; PCR fragments were analyzed on 3% agarose gels.
as §1

[4] = tested on: BT549 cells; assay: Colony assay after transfection with pCEP4 expression constructs; format: cell-based, human; conditions: stable transfectants selected with hygromycin for 2 weeks, crystal violet staining, compared to control pCEP4
Excerpt: Generation of hHIN-1 mammalian expression constructs and recombinant adenoviruses. […] For the generation of a recombinant adenovirus the hHIN-1 cDNA was PCR amplified and subcloned into the Kpn I-Xho I site of the pAd-Track-CMV adenoviral vector followed by recombination and adenovirus generation using the Ad-Easy™(Quantum Biotechnologies, Montreal, Canada) system [He et al. (1998) Proc. Natl. Acad. Sci. USA 95:2509-2514].
Colony assays, cell cycle analysis and western blot analysis. For colony assay experiments, cells in 100 mm plates were transfected with a mix of 42 μl of FuGene6 (Roche) and 21 μg of the indicated plasmid. 24 hours after transfection, 84% of the cells were plated into 2 T25 tissue culture flasks in medium without a selection drug. Twenty-four hours later the medium was replaced with selection medium containing hygromycin. Colonies were allowed to grow for 2 weeks after which they were visualized by crystal violet staining.
In order to investigate the effect of constitutive hHIN-1 expression on mammary cell growth, a mammalian expression construct containing hHIN-1 polypeptide encoding cDNA (pCEP4-HIN-1) was transfected into various breast cancer cell lines. Stable transfectants were selected in the presence of hygromycin for 2 weeks.

## CC1=C(/C=C/C(C)=C/C=C/C(C)=C/C(=O)O)C(C)(C)CCC1 [retinoic acid, all-trans retinoic acid]
[1]; RT-PCR, following retinoic acid treatment
  expression of hHIN-1 mRNA: correlated with the loss of a squamous marker (Tgase I) and preceded the induction of a marker for mucinous differentiation (MUC2)
[1]; air-interface culture
  differentiation phenotype (MUC2 expression): differentiated into mucinous cells

## Nc1ncn([C@H]2C[C@H](O)[C@@H](CO)O2)c(=O)n1 [5aza-C, 5-aza-2′-deoxycytidine]
[2]
  expression of hHIN-1 mRNA: re-expression of hHIN-1 mRNA in all six cell lines
[3]
  extent of hHIN-1 promoter methylation: decrease in the extent of promoter methylation

B1: hHIN-1: hHIN-1 polypeptide (SEQ ID NO:1), 104 amino acids, expressed from the pCEP4-HIN-1 mammalian expression construct (protein, listed as Homo sapiens)
chain: MKLAALLGLCVALSCSSARAFLVGSAKPVAQPVAALESAAEAGAGTLANPLGTLNPLKLLLSSLGIPVNHLIEGSQKCVAELGPQAVGAVKALKALLGALTVFG
[4]
  colony numbers / cell growth: dramatic decrease in colony numbers
